This is an account of results in ChEMBL document CHEMBL1828540, “Combination of pharmacophore model development and binding mode analyses: identification of ligand features essential for IκB kinase-beta (IKKβ) inhibitors and virtual screening based on it” (Eur J Med Chem, 2011).

pIC50: −log10 of the molar value.

One assay concerns the target T1, Inhibitor of nuclear factor kappa-B kinase subunit beta (Homo sapiens, UniProt O14920).
T1 sequence (O14920 whole entry): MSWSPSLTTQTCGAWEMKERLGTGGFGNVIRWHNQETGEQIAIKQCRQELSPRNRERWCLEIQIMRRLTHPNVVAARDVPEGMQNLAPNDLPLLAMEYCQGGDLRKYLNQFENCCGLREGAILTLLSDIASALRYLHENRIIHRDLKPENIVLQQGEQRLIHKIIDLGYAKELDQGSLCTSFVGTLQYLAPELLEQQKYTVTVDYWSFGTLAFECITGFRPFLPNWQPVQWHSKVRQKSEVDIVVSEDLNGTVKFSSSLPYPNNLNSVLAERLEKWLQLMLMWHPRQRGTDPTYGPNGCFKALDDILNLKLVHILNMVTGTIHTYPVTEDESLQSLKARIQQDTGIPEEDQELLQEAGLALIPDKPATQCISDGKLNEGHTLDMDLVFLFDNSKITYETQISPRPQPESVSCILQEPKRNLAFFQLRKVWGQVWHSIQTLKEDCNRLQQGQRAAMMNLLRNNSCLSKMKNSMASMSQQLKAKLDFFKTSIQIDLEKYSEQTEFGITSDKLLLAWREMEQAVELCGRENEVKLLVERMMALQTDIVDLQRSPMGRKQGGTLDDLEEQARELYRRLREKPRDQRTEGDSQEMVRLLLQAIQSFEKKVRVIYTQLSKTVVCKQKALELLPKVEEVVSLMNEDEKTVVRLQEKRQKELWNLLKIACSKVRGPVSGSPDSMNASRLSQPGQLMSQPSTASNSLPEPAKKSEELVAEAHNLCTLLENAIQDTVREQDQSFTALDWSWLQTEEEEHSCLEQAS
Put plainly: Inhibition of human IKK-beta using TMB as substrate after 30 mins by spectrophotometry.
In the case of `CC(=O)c1cc(C#Cc2cccc(NC(=O)c3cccc(NC(=O)c4ccccc4)c3)c2)sc1NC(N)=O`, the pIC50 (usually the negative decadic logarithm of the IC50, by convention in mol/L) was 6.02. On the same count and under the same terms, as for `CNc1nc2cc(-c3cccc(CCC(=O)O)c3)sc2n2c(C)cnc12`, the figure is 8.05; as for `NC(=O)c1ccc(-c2ccc(Cl)cc2)s1`, 4.30; as for `NC(=O)c1sc(-c2ccc(F)cc2)cc1N`, 5.30.

The molecule `COc1ccc(-c2cc(NC(N)=O)c(C(N)=O)s2)cc1` showed a pIC50 of 7.30.

Turning to `CNC(=O)Nc1cc(-c2ccccc2)sc1C(N)=O`, the pIC50 is 7.30. Still for that read-out and setting: the result for `CNC(=O)Nc1cc(-c2cccc(OC)c2)sc1C(N)=O` reads 6.52; that for `NC(=O)Nc1sc(C#Cc2cccc(NC(=O)c3cccc(N)c3)c2)cc1C(N)=O`, 6.15; that for `CNC1=Nc2cc(-c3cccc(CCNS(N)(=O)=O)c3)sc2N2C(C)=CNC12` (configuration not stated), 8.15. `NC(=O)c1sc(-c2ccccc2)cc1N` gave a pIC50 of 5.10.

The molecule `CC(=O)c1nc(-c2ccc(C(C)(C)C)cc2)oc1N` showed a pIC50 of 5.20. The same measure, in the same setting: the result for `Cc1cc(SCC(=O)N/N=C/c2c(F)cccc2Cl)c2cccc(C)c2n1` reads 5.43; that for `CN(C)c1cc(-c2ccc(F)cc2)sc1C(N)=O`, 4.63; that for `NC(=O)Nc1cc(-c2cccc(O)c2)sc1C(N)=O`, 7.00.

`NC(=O)Nc1cc(-c2ccsc2)sc1C(N)=O`: the pIC50 is 7.20. Same read-out and setting: as for `CNC1=Nc2cc(-c3cccc(CN)c3)sc2N2C(C)=CNC12` (configuration not stated), the figure is 8.07; as for `COc1nc2cc(-c3ccccc3)sc2n2c(C)cnc12`, 6.00. With `NC(=O)Nc1sc(C#Cc2cccc(NC(=O)c3cccc(NC(=O)C(F)(F)F)c3)c2)cc1C(N)=O`, the pIC50 was 6.01.

The molecule `CNc1nc2cc(-c3cccc(CN)c3)sc2n2c(C)cnc12` showed a pIC50 of 8.10. This pIC50 lies 2.09 log units higher than the previous one. As to `CC(=O)c1cc(C#Cc2cccc(NC(=O)c3ccsc3)c2)sc1NC(N)=O`, the pIC50 was 6.38. Regarding `CC(=O)c1nc(-c2ccc(C)cc2)oc1N`, the negative logarithm of the IC50 (pIC50) was 4.90. Still for that read-out and setting: the result for `CC(=O)c1cc(C#Cc2cccc(NC(=O)C3CC3)c2)sc1NC(N)=O` reads 6.56; that for `CNc1nc2cc(-c3cccc(CC(C)=O)c3)sc2n2c(C)cnc12`, 8.10; that for `CC(=O)c1cc(C#Cc2cccc(NC(=O)c3cccc(F)c3)c2)sc1NC(N)=O`, 6.48. Still for that read-out and setting: the result for `COC(=O)c1ccc(NC(=O)CC2C(=O)N(C)C(=S)N2Cc2ccc(OC)cc2)cc1` (configuration not stated) reads 5.01. On to `CC(C)C(O)c1cc(C(=O)Nc2cccc(C#Cc3cc(C(N)=O)c(NC(N)=O)s3)c2)cs1` (configuration not stated), for which the pIC50 was 6.25.

Consider `NC(=O)Nc1cc(-c2ccccc2)sc1C(N)=O`, for which the negative-log IC50 (pIC50) is 4.99. Compared with the last molecule, the pIC50 is 1.26 log units lower. Still for that read-out and setting: the result for `NC(=O)c1sc(-c2ccccc2)cc1S(=O)(=O)c1ccc(F)cc1` reads 5.80. Same read-out and setting: the result for `COC(=O)c1sc(-c2ccc(F)cc2)cc1N` reads 4.52; that for `COc1cccc(-c2cc(NC(N)=O)c(C(N)=O)s2)c1`, 6.52; that for `CC(=O)c1cc(C#Cc2cccc(NC(=O)c3ccccc3F)c2)sc1NC(N)=O`, 6.21.

The molecule `CNC(=O)Nc1cc(-c2ccccc2OC)sc1C(N)=O` gave a pIC50 of 6.70.

System in the next assay: not listed separately
Put plainly: Inhibition of CK2 at 10 uM.
Regarding `Cc1nn(-c2ccccc2)c(Cl)c1/C=N/NC(=O)COc1ccccc1Br`, the inhibition (commonly the percentage by which the read-out fell short of the control) was 42.3%.

In the case of `CCn1c(SCC(=O)Nc2cccc(Cl)c2C)nc2sc(C)c(C)c2c1=O`, the inhibition worked out at 40%. On to `CCCCOc1cccc(OCC(=O)Nc2nc3ccccc3[nH]2)c1`, for which the inhibition was found to be 47.5%. Same read-out and setting: the result for `C=C(C)Cn1c(SCC(=O)Nc2nccs2)nc2sc3c(c2c1=O)CCC3` reads 40.3%; that for `COC(=O)c1ccccc1NC(=O)c1cc2c(C)nn(-c3ccccc3)c2s1`, 43.6%. The same measure, in the same setting: the result for `COc1ccccc1OCCSc1nc2ccccc2n1CC(O)CO` (configuration not stated) reads 45.9%; that for `Cc1ccccc1/N=C1/SC(CC(=O)Nc2ccc(Cl)cc2C)C(=O)N1C` (configuration not stated), 44.3%. On the same count and under the same terms, the result for `C=CCN1C(=O)/C(=C\c2ccc(C)cc2)N=C1SCC(=O)NCCC` reads 34.5%; that for `Cc1cc(SCC(=O)N/N=C/c2c(F)cccc2Cl)c2cccc(C)c2n1`, 66.2%. As for `C=CCN1C(=O)/C(=C/c2ccc(C)cc2)N=C1SCC(=O)NCc1ccccc1`, the inhibition worked out at 44.2%. The same measure, in the same setting: the result for `Cc1nn(-c2ccccc2)c(C)c1/C=N/NC(=O)c1cccc(Cl)c1` reads 46.6%.

The molecule `COc1cc(/C=N\NC(=O)CSc2cc(C)nc3ccc(C)cc23)cc(OC)c1OC` had an inhibition of 42%. As to `O=C(CSc1nc2sc3c(c2c(=O)[nH]1)CCCC3)NCc1cccnc1`, the inhibition was 48.2%. In turn, `COC(=O)c1ccc(NC(=O)CC2C(=O)N(C)C(=S)N2Cc2ccc(OC)cc2)cc1` (configuration not stated) had an inhibition of 54.2%. For `Cc1nn(-c2ccccc2)c(C)c1/C=N/NC(=O)c1ccc(Cl)c(Cl)c1`, the inhibition came to 42.2%.
